Values quoted from earlier work as cited in patent US20080113973A1, “Compositions and methods involving the combination of a thromboxane A2 receptor antagonist and an inhibitor of cyclooxygenase-2” (B.M.R.A. Corporation B.V., priority 2002, published 2008).

- Time of peak plasma concentrations (after oral administration): 2 to 3 h
- half life (in vivo): about 17 hours
SMILES: CS(=O)(=O)c1ccc(C2=C(c3ccccc3)C(=O)OC2)cc1 [Rofecoxib]
